Assay results taken from PMC10718076, “1,2-Disubstituted bicyclo[2.1.1]hexanes as saturated bioisosteres of ortho-substituted benzene” (Chemical Science, 2023).
Converted amounts (≈) assume the structure as drawn. Structures can show the parent of a compound that is named as a salt. Where two headings read alike, the source gives them in different places.

What was measured:
[1] = Kinetic solubility in phosphate-buffered saline, pH 7.4; assay type: physicochemical; settings: for solubility kinetic at 2 h / solubility at 2 h: 25 °C, pH 7.4, aqueous buffer, kinetic from dmso stock; for solubility at 2 h: PBS solubility
Protocol: Analysis of Aqueous Solubility […]
compound (Ondansetron) were assessed for kinetic solubility in phosphate -buffered saline, pH 7.4.
Phosphate buffered saline, pH 7.4 (Sigma -Aldrich, USA; Cat #P3813) […]
MultiScreen HTS 96 Well Filter Plates (Millipore, Ireland; Cat # MSSLBPC10) […]
Matrix Multichannel Electronic Pipette 2-125 μL, 5-250 μL, 15-1250 μL (Thermo Scientific, USA; […]
Vacuum pump (Millipore, USA; Model # XX5500000)
The measurements were performed using SpectraMax Plus reader in UV -Vis mode. Acquisition and […]
The measurements were performed using SpectraMax Paradigm reader in UV-Vis mode.
Acquisition and analysis of the data were performed using SoftMax Pro v.5.4 (Molecular Devices) […]
Kinetic solubility assay was performed according to the Enamine’s aqueous solubility SOP. Briefly, using a 20 mM stock solution of the compound in 100% DMSO dilutions were prepared to a theoretical concentration of 400 μM in duplicates in phosphate-buffered saline pH 7.4 […]
compound dilutions in PBS were further allowed to equilibrate at 25 °C on a thermostatic shaker for two hours and then filtered through HTS filter plates using a vacuum manifold. The filtrates of test compounds were diluted 2-fold with acetonitrile with 2% DMSO before measuring.
In parallel, compound dilutions in 50% acetonitrile/PBS were prepared to theoretical concentrations […]
calibration curves. Ondansetron was used as reference compound to control proper assay performance. 200 μl of each sample was transferred to 96-well plate and measured in 230-550 nm range with 5 nm step. The effective range of this assay is approximately 2-400 μM and the […]
The concentrations of compounds in PBS filtrate are calculated using a dedicated Microsoft Excel calculation script. Proper absorbance wavelengths for calculations are selected for each compound manually based on absorbance maximums (absolute absorbance unit values for the minimum and maximum concentration points within the 0 – 3 OD range). Each final dataset is visually evaluated by the operator, and goodness of fit (R2) is calculated for each calibration curve. […]
samples were diluted 2-fold with acetonitrile containing internal standard and were analyzed using the HPLC system coupled with a tandem mass spectrometer. The effective range of this assay is […]

[2] = Metabolic stability in human liver microsomes; settings: both; for remaining at 40 min, 2 µM: Mean of 2, 40 min
physchem = settings: pH 7.4, LogD, pH 7.4
in vitro = settings: both, human
[3] = Table S5, injection 1, octanol/PBS pH 7.4
[4] = Table S5, injection 2, octanol/PBS pH 7.4
[5] = Table S5, injection 3, octanol/PBS pH 7.4

Work on Cc1nc2c([nH]1)CCN(C(=O)c1ccc(NC(=O)C3CC4CC3(c3ccccc3)C4)cc1)c1ccccc1-2 (stereo not drawn) [Compound 26] yielded a solubility kinetic at 2 h [1] of 14 µM (≈ 7.04 µg/mL), a solubility at 2 h ([1]; pH 7.4, Incubation 1) of 15 µM (≈ 7.54 µg/mL) and a solubility at 2 h ([1]; pH 7.4, Incubation 2) of 14 µM (≈ 7.04 µg/mL). It also gave a solubility at 2 h ([1]; pH 7.4, Mean) of 14 µM (≈ 7.04 µg/mL), a D [3] of 9.55E+03 and a D [4] of 1.25E+04. The D [5] was 1.36E+04, the microsomal CLint at 2 μM ([2]; human liver microsomes (pooled), pH 7.4) was 12 µL/min/mg and the remaining at 40 min, 2 µM ([2]; liver microsomes (pooled), pH 7.4, % Remaining without cofactor, no NADPH cofactor, Table S6, 1st batch) was 109%. The remaining at […], 2 µM ([2]; liver microsomes (pooled), pH 7.4, % Remaining, Mean of 2, 7 min, Table S6, 1st batch) was 81%, the remaining at […], 2 µM ([2]; liver microsomes (pooled), pH 7.4, % Remaining, Mean of 2, 15 min, Table S6, 1st batch) was 81% and the remaining at 25 min, 2 µM ([2]; liver microsomes (pooled), pH 7.4, % Remaining, Mean of 2, 25 min, Table S6, 1st batch) was 83%. For the same compound, the remaining at 40 min, 2 µM ([2]; liver microsomes (pooled), pH 7.4, % Remaining, Table S6, 1st batch) was 76%, the k el at 2 µM ([2]; liver microsomes (pooled), pH 7.4, kel, Table S6, 1st batch) was 8.33e-05 s⁻¹ and the half-life at 2 µM ([2]; liver microsomes (pooled), pH 7.4, t1/2, Table S6, 1st batch) was 2.25 h. The logD at 1 h (physchem) was 3.98.

With Cc1nccn1CC1CCc2c(c3ccccc3n2C)C1=O (stereo not drawn) [Ondansetron, reference compound] the solubility at 2 h ([1]; pH 7.4, Incubation 1) was 126 µM (≈ 37 µg/mL), the solubility at 2 h ([1]; pH 7.4, Incubation 2) was 126 µM (≈ 37 µg/mL) and the solubility at 2 h ([1]; pH 7.4, Mean) was 126 µM (≈ 37 µg/mL). For the same compound, the “PBS solubility, pH 7.4, Incubation 1” value ([1]; Table S1, 1st batch) was 121 µM and the “PBS solubility, pH 7.4, Incubation 2” value ([1]; Table S1, 1st batch) was 119 µM.

In the case of O=C(NC1CCN(CCCCC2(C(=O)NCC(F)(F)F)c3ccccc3-c3ccccc32)CC1)c1ccccc1-c1ccc(C(F)(F)F)cc1 [Lomitapide, lomitapide], the solubility kinetic at 2 h [1] is reported as 3 µM (≈ 2.08 µg/mL), the D [3] is reported as 5.98E+08 and the D [4] is reported as 3.42E+05. It also gave a D [5] of 6.79E+04.

With CC(C)NCC(O)COc1cccc2ccccc12 (racemic) [Propranolol, (+,-) Propranolol hydrochloride] the remaining at 40 min, 2 µM (in vitro; microsomes, pH 7.4, % Remaining, Mean of 2) was 68%, the half-life at 2 µM (in vitro; microsomes, pH 7.4, t1/2) was 1.18 h and the half-life at 2 µM (in vitro; s9, pH 7.4, t1/2) was roughly 5.93 h. It also gave a remaining at 40 min, 2 µM ([2]; liver microsomes (pooled), pH 7.4, % Remaining, Table S7, 2st batch) of 58%.

In the case of COC(=O)Nc1nc2ccc(C(=O)c3ccccc3)cc2[nH]1 [Mebendazole], the logD at 1 h (physchem) is reported as 2.82.
